From BigSolDB 2.1

Clc1ccccc1C(c1ccccc1)(c1ccccc1)n1ccnc1
Conditions	solubility (mole fraction)
in ethyl acetate, 283.11 K	0.00714
in ethyl acetate, 288.17 K	0.00838
in ethyl acetate, 293.24 K	0.01
in ethyl acetate, 298.15 K	0.0119
in ethyl acetate, 303.14 K	0.0142
in ethyl acetate, 308.18 K	0.0168
in ethyl acetate, 313.12 K	0.0198
in ethyl acetate, 318.16 K	0.0233
in ethyl acetate, 323.19 K	0.0275
in isobutanol, 283.09 K	0.0157
in isobutanol, 288.15 K	0.0202
in isobutanol, 293.11 K	0.0251
in isobutanol, 298.17 K	0.0311
in isobutanol, 303.16 K	0.0385
in isobutanol, 308.21 K	0.0477
in isobutanol, 313.15 K	0.0589
in isobutanol, 318.14 K	0.0722
in isobutanol, 323.18 K	0.0873
in isopentanol, 283.13 K	0.0157
in isopentanol, 288.18 K	0.0193
in isopentanol, 293.14 K	0.0239
in isopentanol, 298.16 K	0.0296
in isopentanol, 303.13 K	0.0366
in isopentanol, 308.18 K	0.045
in isopentanol, 313.12 K	0.0548
in isopentanol, 318.15 K	0.0668
in isopentanol, 323.19 K	0.081
in isopropanol, 283.1 K	0.00571
in isopropanol, 288.15 K	0.00723
in isopropanol, 293.13 K	0.00916
in isopropanol, 298.16 K	0.0115
in isopropanol, 303.12 K	0.0145
in isopropanol, 308.15 K	0.0185
in isopropanol, 313.19 K	0.0235
in isopropanol, 318.16 K	0.03
in isopropanol, 323.15 K	0.0384
in isopropyl acetate, 283.1 K	0.00518
in isopropyl acetate, 288.16 K	0.00615
in isopropyl acetate, 293.2 K	0.0073
in isopropyl acetate, 298.19 K	0.00868
in isopropyl acetate, 303.15 K	0.0102
in isopropyl acetate, 308.12 K	0.0121
in isopropyl acetate, 313.15 K	0.0144
in isopropyl acetate, 318.19 K	0.0171
in isopropyl acetate, 323.17 K	0.0203
in methyl acetate, 283.15 K	0.00661
in methyl acetate, 288.17 K	0.00792
in methyl acetate, 293.1 K	0.00953
in methyl acetate, 298.21 K	0.0114
in methyl acetate, 303.15 K	0.0137
in methyl acetate, 308.16 K	0.0164
in methyl acetate, 313.12 K	0.0196
in methyl acetate, 318.14 K	0.0235
in methyl acetate, 323.18 K	0.0281
in methyl propionate, 283.13 K	0.00984
in methyl propionate, 288.17 K	0.0117
in methyl propionate, 293.21 K	0.0138
in methyl propionate, 298.15 K	0.0163
in methyl propionate, 303.14 K	0.0192
in methyl propionate, 308.17 K	0.0227
in methyl propionate, 313.08 K	0.0268
in methyl propionate, 318.19 K	0.0316
in methyl propionate, 323.15 K	0.0373
in n-butanol, 283.16 K	0.0151
in n-butanol, 288.11 K	0.0188
in n-butanol, 293.15 K	0.0235
in n-butanol, 298.2 K	0.0289
in n-butanol, 303.14 K	0.0356
in n-butanol, 308.18 K	0.0439
in n-butanol, 313.15 K	0.0538
in n-butanol, 318.17 K	0.0659
in n-butanol, 323.16 K	0.0798
in n-butyl acetate, 283.16 K	0.00743
in n-butyl acetate, 288.19 K	0.00886
in n-butyl acetate, 293.14 K	0.0104
in n-butyl acetate, 298.16 K	0.0124
in n-butyl acetate, 303.11 K	0.0148
in n-butyl acetate, 308.09 K	0.0176
in n-butyl acetate, 313.25 K	0.0211
in n-butyl acetate, 318.15 K	0.0251
in n-butyl acetate, 323.13 K	0.0299
in n-heptanol, 283.17 K	0.0108
in n-heptanol, 288.14 K	0.0151
in n-heptanol, 293.18 K	0.0198
in n-heptanol, 298.16 K	0.0251
in n-heptanol, 303.1 K	0.0316
in n-heptanol, 308.15 K	0.039
in n-heptanol, 313.19 K	0.0474
in n-heptanol, 318.08 K	0.0578
in n-heptanol, 323.16 K	0.0695
in n-hexanol, 283.08 K	0.0145
in n-hexanol, 288.13 K	0.0185
in n-hexanol, 293.16 K	0.0231
in n-hexanol, 298.15 K	0.0287
in n-hexanol, 303.19 K	0.0356
in n-hexanol, 308.14 K	0.0432
in n-hexanol, 313.1 K	0.053
in n-hexanol, 318.21 K	0.064
in n-hexanol, 323.17 K	0.0769
in n-octanol, 283.06 K	0.0118
in n-octanol, 288.15 K	0.0159
in n-octanol, 293.13 K	0.0203
in n-octanol, 298.19 K	0.0247
in n-octanol, 303.11 K	0.0301
in n-octanol, 308.22 K	0.0366
in n-octanol, 313.18 K	0.0453
in n-octanol, 318.09 K	0.0553
in n-octanol, 323.17 K	0.0661
in n-pentanol, 283.19 K	0.0169
in n-pentanol, 288.15 K	0.0213
in n-pentanol, 293.13 K	0.0269
in n-pentanol, 298.1 K	0.0325
in n-pentanol, 303.12 K	0.04
in n-pentanol, 308.15 K	0.0486
in n-pentanol, 313.07 K	0.0587
in n-pentanol, 318.14 K	0.0707
in n-pentanol, 323.17 K	0.085
in n-propanol, 283.15 K	0.0144
in n-propanol, 288.12 K	0.0172
in n-propanol, 293.14 K	0.0213
in n-propanol, 298.18 K	0.0263
in n-propanol, 303.16 K	0.0327
in n-propanol, 308.15 K	0.0405
in n-propanol, 313.11 K	0.05
in n-propanol, 318.17 K	0.0618
in n-propanol, 323.18 K	0.0761
in n-propyl acetate, 283.15 K	0.008
in n-propyl acetate, 288.14 K	0.0095
in n-propyl acetate, 293.19 K	0.0112
in n-propyl acetate, 298.17 K	0.0132
in n-propyl acetate, 303.16 K	0.0156
in n-propyl acetate, 308.12 K	0.0185
in n-propyl acetate, 313.21 K	0.0217
in n-propyl acetate, 318.15 K	0.0257
in n-propyl acetate, 323.13 K	0.0303
in sec-butanol, 283.15 K	0.0101
in sec-butanol, 288.16 K	0.013
in sec-butanol, 293.21 K	0.0165
in sec-butanol, 298.18 K	0.021
in sec-butanol, 303.13 K	0.0267
in sec-butanol, 308.15 K	0.0338
in sec-butanol, 313.19 K	0.0425
in sec-butanol, 318.11 K	0.0532
in sec-butanol, 323.14 K	0.0657
